Read-outs that look alike come from different tables or passages of the source.
Assays:
Format in all cases: cell-based
[1] = tested on: SK-BR-3 (human breast cancer cell); assay: MTT inhibition of proliferation, SK-BR-3; details: SK-BR-3, MTT, 48 h, read-out: Inhibitory Activity on the Proliferation of Tumor Cells (IC50 ± SD) SK-BR-3
Method: (§1) The compound 8 of the invention was prepared into required concentrations using a culture medium containing 0.1% DMSO.
(§2) The seven tumor cells including MCF-7 (human breast cancer cell, ATCC:HTB-22), SK-BR-3 (human breast cancer cell, ATCC:HTB-30), A549 (human non-small cell lung cancer cell, ATCC:CRM-CCL-185), HCT116 (human colon cancer cell, ATCC:CCL-247), U-118 MG (human astrocytoma, ATCC:HTB-15), U-87 MG (human astrocytoma, ATCC:HTB-14), MDA-MB-468 (human breast cancer cell, ATCC:HTB-132) were all purchased from American Type Culture Collection (ATCC). […]
(§3) MCF-7, SK-BR-3, A549, HCT 116, U-118 MG U-87 MG and MDA-MB-468 cells in logarithmic phase with excellent growth conditions were grafted into a 96-well plate according to a density of 1×10^4 cells/mL, wherein each well was grafted 100 μl. […] A supernate was absorbed out carefully, 150 μl DMSO was added into each hole to dissolve purple residue (formazan), flatly oscillated for 10 min to completely dissolve deposits, then O.D. value (absorbancy) was measured on a microplate reader, wherein the wavelength was 570 nm. […]
(§4) The test was repeated for thrice. A diagram was made by plotting the inhibition rate against the concentration of the compound, and the IC50 (half effective inhibitive concentration) value of the compound 8 of the invention was calculated. […]

[2] = tested on: U-118 MG (human astrocytoma); assay: MTT inhibition of proliferation, U-118 MG; details: 48 h, read-out: Inhibitory Activity on the Proliferation of Tumor Cells (IC50 ± SD) U-118 MG
Method: as §1, §2, §3, §4

[3] = tested on: U-87 MG (human astrocytoma); assay: MTT inhibition of proliferation, U-87 MG; details: 48 h, read-out: Inhibitory Activity on the Proliferation of Tumor Cells (IC50 ± SD) U-87 MG
Method: as §1, §2, §3, §4

[4] = tested on: MDA-MB-468 (human breast cancer cell); assay: MTT inhibition of proliferation, MDA-MB-468; details: MDA-MB-468, MTT, 48 h, read-out: Inhibitory Activity on the Proliferation of Tumor Cells (IC50 ± SD) MDA-MB-468
Method: as §1, §2, §3, §4

[5] = tested on: MCF-7 (human breast cancer cell); assay: MTT inhibition of proliferation, MCF-7; details: MCF7, MCF-7, MTT, 48 h, read-out: Inhibitory Activity on the Proliferation of Tumor Cells (IC50 ± SD) MCF-7
Method: as §1, §2, §3, §4

[6] = tested on: A549 (human non-small cell lung cancer cell); assay: MTT inhibition of proliferation, A549; details: 48 h, read-out: Inhibitory Activity on the Proliferation of Tumor Cells (IC50 ± SD) A549
Method: as §1, §2, §3, §4

[7] = tested on: HCT116 (human colon cancer cell); assay: MTT inhibition of proliferation, HCT 116; details: HCT 116, MTT, 48 h, read-out: Inhibitory Activity on the Proliferation of Tumor Cells (IC50 ± SD) HCT 116
Method: as §1, §2, §3, §4

Row | SMILES | IC50 [1] | IC50 [2] | IC50 [3] | IC50 [4] | IC50 [5] | IC50 ([1]; Homo sapiens) | IC50 [6] | IC50 [7] | IC50 ([2]; Homo sapiens) | IC50 ([3]; Homo sapiens) | IC50 ([4]; Homo sapiens)
1 | COc1cccc2c1C(=O)c1c(O)c3c(c(O)c1C2=O)C[C@@](O)(C(=O)CO)C[C@@H]3O[C@H]1C[C@H](N)[C@H](O)[C@H](C)O1 [ADR, Adriamycin amycin, reference compound] | 4.65 ± 0.02 µM | 13.5 ± 1.75 µM | 82.5 ± 7.15 µM | 2.45 ± 0.31 µM | – | – | – | – | – | – | –
2 | COc1cc2ncnc(Nc3ccc(NCc4ccc(F)cc4)cc3)c2cc1OCCN1CCCC1 [Compound 8, N-[(4-fluorophenyl)methyl]-4-N-{7-methoxy-6-[(2-pyrrolidin-1-yl)hydroxyethyl]quinazolin-4-yl}phen-1,4-diamine] | – | – | – | – | 16.1 ± 3.47 µM | 10.2 ± 0.86 µM | 5.66 ± 1.01 µM | 2.9 ± 1.02 µM | 24.5 ± 2.68 µM | 5.45 ± 0.61 µM | 19.4 ± 1.33 µM

Source: patent US9624179B1, “Quinazoline derivative Lu1501 and preparing method and application thereof” (NANJING GENERAL HOSPITAL OF NANJING MILITARY REGION OF PLA, priority 2015, dated 2017)
